Reference: ChEMBL document CHEMBL1146491, “Seco[D-Asp3]microcystin-RR and [D-Asp3,D-Glu(OMe)6]microcystin-RR, two new microcystins from a toxic water bloom of the cyanobacterium planktothrixrubescens” (J Nat Prod, 2004)

Test: Inhibition of recombinant PP1

Row | Compound | IC30
1 | CNC(=O)CC[C@@H](NC(=O)[C@@H](C)[C@H](/C=C/C(C)=C/[C@H](C)[C@H](Cc1ccccc1)OC)NC(=O)[C@H](CCCNC(=N)N)NC(=O)C[C@@H](NC(=O)[C@H](CCCNC(=N)N)NC(=O)[C@@H](C)NC(=O)C(C)=O)C(=O)O)C(=O)O | 0.8 µM
2 | C=C1C(=O)N[C@H](C)C(=O)N[C@@H](CCCNC(=N)N)C(=O)N[C@@H](C(=O)O)CC(=O)N[C@@H](CCCNC(=N)N)C(=O)N[C@@H](/C=C/C(C)=C/[C@H](C)[C@H](Cc2ccccc2)OC)[C@H](C)C(=O)N[C@@H](C(=O)O)CCC(=O)N1C | 7.8 µM
